pIC50: −log10 of the molar value. Where two headings read alike, the source gives them in different places.
What was measured:
[1] = test system: 5-LOX product formation (FLAP) in human monocytes; experiment: 5-LOX product formation in intact human monocytes stimulated with Ca2+-ionophore A23187; type: cell-based; conditions: Monocyte, 5 h, read-out: IC50, formation of LTB4 and its isomers and of 5-H(p)ETE (5-LOX product formation)
Protocol: Peripheral blood (University Hospital Jena, Germany) was collected from fasted healthy adult donors that were informed about the aim of the study and gave written consent. The protocols for experiments with neutrophils or monocytes were approved by the ethical commission of the Friedrich-Schiller-University Jena (approval number 4292-12/14). All methods were performed in accordance with the relevant guidelines and regulations. Leukocyte concentrates were obtained by centrifugation (4000 × g, 20 min, 20 °C) of heparinized blood preparations. Neutrophils and monocytes were immediately isolated as described before. In brief, leukocyte concentrates were subjected to dextran sedimentation and centrifuged on lymphocyte separation medium (LSM 1077, PAA, Coelbe, Germany). For isolation of pelleted neutrophils, remaining erythrocytes were removed by hypotonic lysis, washed twice with ice-cold PBS and resuspended in medium to a cell density described for the respective experiments. […]
Human recombinant 5-LOX was expressed in E.coli BL21 transformed with pT3-5-LOX plasmid at 30 °C overnight as described before. […] After elution with methanol, samples were analyzed by RP-HPLC using a C-18 Radial-PAK column (Waters, Eschborn, Germany). […]

[2] = test system: zymosan-induced peritonitis; experiment: Zymosan-induced peritonitis mouse model; type: in vivo; conditions: for vascular permeability, % of vehicle control: 30 min after zymosan; for myeloperoxidase activity / myeloperoxidase activity, % of vehicle control / leukocyte recruitment: 4 h after zymosan
Protocol: The animal studies are reported in accordance with the ARRIVE guidelines for reporting animal research. Male CD-1 mice (33–39 g, 8–9 weeks, Charles River Laboratories, Calco, Italy) were housed in a controlled environment (21 ± 2 °C) and provided with standard rodent chow and water ad libitum. Mice received a standard diet containing 5.7% fat, 18.9% protein and 57.3% carbohydrate (Global Diet 2018, ENVIGO, Italy). The fatty acid composition was according to Matias et al.[67].
Prior to experiments, all mice were allowed to acclimate for 5 days and kept at 12 h light–dark schedule, in which experiments were performed during the light phase. Animal care was in compliance with Italian regulations on protection of animals used for experimental and other scientific purpose (Ministerial Decree 116/92) and with the European Economic Community regulations (Official Journal of E.C. L 358/1 12/18/1986). Animal studies were approved by the local ethical committee of the University of Naples Federico II on 27 February 2014 (approval number 2014/18760). […] Zymosan (Sigma, Milan, Italy) was prepared and injected i.p. as a final suspension (2 mg/mL) in 0.9% saline solution after boiling, centrifugation and sonication. Peritoneal lavage (3 mL of cold PBS) was performed after CO2-euthanasia at indicated time points, followed by 60 sec of gentle manual massage. Two mL of exudates were collected and infiltrated cells were determined using a Burker chamber and vital trypan blue staining. Pelleted samples (18,000 × g, 5 min, 4 °C) were frozen (−80 °C) and assayed for myeloperoxidase (MPO) activity (pellet) or LTC4 and LTB4 formation (supernatant), respectively.
MPO of neutrophils was examined as follows: pellets from exudates were resuspended in PBS (50 mM, pH 6) containing 0.5% hexadecyltrimethyl-ammonium bromide and sonicated, followed by 3 freeze-thawing cycles and a final sonication. Supernatants of centrifuged samples (18,000 × g, 30 min) were added to a 96-well plate and reactions were initiated by addition of PBS (50 mM, pH 6) containing o-dianisidine (0.167 mg/mL) and hydrogen peroxide (0.0005%). Absorbance was monitored in the kinetic mode (Biorad Imark microplate) and levels of MPO were determined using a calibration curve with human neutrophils as reference standard. MPO levels were expressed as units MPO per mouse. LTC4 and LTB4 formation within the supernatants were determined by EIA (Enzo Life Sciences International Inc., Lörrach, Germany) according to manufacturer’s protocol.
Vascular permeability was assessed according to a previous report. Briefly, 0.3 mL of 0.9% saline solution supplemented with Evans blue dye (40 mg/kg) was injected intravenously (i.v.) into the caudal vein followed by immediate peritonitis induction (using zymosan). After 30 min, peritoneal lavage exudates of CO2-euthanized were collected as described above. Absorbance of the centrifuged supernatants (3,000 × g, 5 min) was measured at 650 nm (Beckman Coulter DU730).

[3] = biological target: T1, LTC4S (Homo sapiens, UniProt Q16873); conditions: cited from earlier work
T1 construct: expressed in transfected cells; host or cells: HEK293 stably expressing LTC4S (geneticin selection), microsomal fraction
T1 sequence (Q16873 1-150): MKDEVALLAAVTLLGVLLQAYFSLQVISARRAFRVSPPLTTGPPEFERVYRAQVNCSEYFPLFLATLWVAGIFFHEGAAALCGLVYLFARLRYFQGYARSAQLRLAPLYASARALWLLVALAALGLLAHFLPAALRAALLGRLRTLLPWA

[4] = mice, 1 mg/kg i.p. 30 min before zymosan

| pIC50 ([1]; intact human monocytes, Ca2+-ionophore A23187, no AA supplementation) | SMILES | pIC50 ([1]; Homo sapiens) | vascular permeability, % of vehicle control ([2]; mice, 10 mg/kg i.p.) | myeloperoxidase activity ([2]; mice, 10 mg/kg i.p.) [U/mL] | myeloperoxidase activity, % of vehicle control ([2]; mice, 10 mg/kg i.p.) | LTC4 peritoneal levels ([2]; mice, 1, 3 and 10 mg/kg i.p. 30 min before zymosan, analysed 30 min after zymosan) | LTB4 peritoneal levels ([2]; mice, 1, 3 and 10 mg/kg i.p. 30 min before zymosan, analysed 4 h after zymosan) | leukocyte recruitment ([2]; mice, 1, 3 and 10 mg/kg i.p., dose-dependent) | inhibition of MAPEG family member LTC4S [3] | LTB4 peritoneal levels [2, 4] | LTC4 peritoneal levels [2, 4] | myeloperoxidase activity ([2]; mice, 1 mg/kg i.p.) [U/mL] | myeloperoxidase activity, % of vehicle control ([2]; mice, 1 mg/kg i.p.) | vascular permeability, % of vehicle control ([2]; mice, 3 mg/kg i.p.) | leukocyte recruitment ([2]; mice, MK886 i.p.) |
| --- | --- | --- | --- | --- | --- | --- | --- | --- | --- | --- | --- | --- | --- | --- | --- |
| – | Cc1cc(OCc2nc3ccccc3s2)ccc1NC(=O)Nc1ccc(Cl)c(Cl)c1 [diflapolin, N-[4-(benzothiazol-2-ylmethoxy)-2-methylphenyl]-N′-(3,4-dichlorophenyl)urea] | 7.52 | 55.7 ± 14.4 % of vehicle control | 0.65 ± 0.15 | 52.8 ± 12.2 % of vehicle control | significant reduction | significant reduction | block of leukocyte recruitment | – | – | – | – | – | – | – |
| ~8.52 | CC(C)c1ccc2c(c1)c(SC(C)(C)C)c(CC(C)(C)C(=O)O)n2Cc1ccc(Cl)cc1 [MK886, 3-[1-(4-chlorobenzyl)-3-t-butyl-thio-5-isopropylindol-2-yl]-2,2 - dimethylpropanoic acid] | – | – | – | – | – | – | – | inhibit | comparable to the effect of MK886 | comparable to the effect of MK886 | 0.72 ± 0.13 | 58.5 ± 10.6 % of vehicle control | 48.6 ± 3.2 % of vehicle control | block of leukocyte recruitment |

Source: article PMC5571211 (Scientific Reports, 2017)
